Source: ChEMBL document CHEMBL1129258, “Synthesis and structure-activity relationships of 2-pyridones: a novel series of potent DNA gyrase inhibitors as antibacterial agents” (J Med Chem, 1996)
Converted amounts (≈) assume the structure as drawn.

How the values were obtained:
[1] = target: T1, DNA gyrase (Staphylococcus aureus) (UniProt P0A0K8+P20831); experiment: In vitro antibacterial activity against gram-positive organism Staphylococcus aureus ATCC 6538p; format: functional
[2] = target: T2, DNA gyrase (Escherichia coli) (UniProt P0AES6+P0AES4); experiment: In vitro antibacterial activity against gram-positive organism Streptococcus bovis A-5169; format: functional; details: Streptococcus equinus
[3] = target: T1, DNA gyrase (Staphylococcus aureus); experiment: In vitro antibacterial activity against gram-positive organism Staphylococcus aureus NCTC-10649M; format: functional
[4] = In vitro antibacterial activity against gram-negative organism Pseudomonas aeruginosa DPHD-2862; format: functional; details: Pseudomonas aeruginosa; read-out: MIC
[5] = target: T2, DNA gyrase (Escherichia coli); experiment: In vitro antibacterial activity against gram-negative organism Klebsiella pneumoniae ATCC 8045; format: functional
Streptococcus pyogenes = experiment: In vitro antibacterial activity against gram-positive organism Streptococcus pyogenes EES61; format: functional; details: Streptococcus pyogenes; read-out: MIC
[6] = target: T2, DNA gyrase (Escherichia coli); experiment: In vitro antibacterial activity against gram-positive organism Enterococcus faecium ATCC 8043; format: functional
[7] = target: T2, DNA gyrase (Escherichia coli); experiment: In vitro antibacterial activity against gram-negative organism […] ATCC 13048; format: functional; details: Enterobacter aerogenes
[8] = In vitro antibacterial activity against gram-negative organism Pseudomonas aeruginosa 5007; format: functional
[9] = target: T2, DNA gyrase (Escherichia coli); experiment: In vitro antibacterial activity against gram-negative organism Prov. stuartii CMX-640; format: functional; details: Providencia stuartii
[10] = target: T2, DNA gyrase (Escherichia coli); experiment: In vitro antibacterial against gram-negative organism Escherichia coli JUHL; format: functional; details: Escherichia coli K-12
[11] = target: T2, DNA gyrase (Escherichia coli); details: Escherichia coli K-12
Description: Concentration which causes 50% of the gyrase (Escherichia coli H560)-mediated maximal DNA cleavage.

[12] = target: T1, DNA gyrase (Staphylococcus aureus); experiment: In vitro antibacterial activity against gram-positive organism Staphylococcus aureus 1775; format: functional
[13] = Pseudomonas aeruginosa, read-out: MIC

Row | MIC [1] [µg/mL] | MIC [2] [µg/mL] | MIC [3] [µg/mL] | MIC [4] [µg/mL] | MIC [5] [µg/mL] | MIC (Streptococcus pyogenes) [µg/mL] | MIC [6] [µg/mL] | MIC [7] [µg/mL] | MIC [8, 13] [µg/mL] | MIC [9] [µg/mL] | MIC [10] [µg/mL] | MIC [12] [µg/mL] | MIC [8] [pug ml-1] | SMILES | CC50 [11] [µg/mL]
1 | 0.01 (≈ 0.0252 µM) | 0.2 (≈ 0.503 µM) | 0.01 (≈ 0.0252 µM) | 12.5 (≈ 31.5 µM) | 0.05 (≈ 0.126 µM) | 0.05 (≈ 0.126 µM) | 0.05 (≈ 0.126 µM) | 0.2 (≈ 0.503 µM) | 0.39 (≈ 0.981 µM) | 0.39 (≈ 0.981 µM) | 0.01 (≈ 0.0252 µM) | 0.78 (≈ 1.96 µM) | – | Cc1c(N2CCC(n3ccnn3)C2)c(F)cn2c(=O)c(C(=O)O)cc(C3CC3)c12 (configuration not stated) | 0.07 (≈ 0.176 µM)
2 | 0.02 (≈ 0.0556 µM) | 0.1 (≈ 0.278 µM) | 0.05 (≈ 0.139 µM) | 6.2 (≈ 17.3 µM) | 0.01 (≈ 0.0278 µM) | 0.1 (≈ 0.278 µM) | 0.1 (≈ 0.278 µM) | 0.05 (≈ 0.139 µM) | 0.2 (≈ 0.556 µM) | 0.78 (≈ 2.17 µM) | 0.01 (≈ 0.0278 µM) | 1.56 (≈ 4.34 µM) | – | Cc1c(N2CCC(C)(N)C2)c(F)cn2c(=O)c(C(=O)O)cc(C3CC3)c12 (configuration not stated) | –
3 | 0.01 (≈ 0.0245 µM) | 0.05 (≈ 0.123 µM) | 0.02 (≈ 0.0491 µM) | 12.5 (≈ 30.7 µM) | 0.05 (≈ 0.123 µM) | 0.05 (≈ 0.123 µM) | 0.05 (≈ 0.123 µM) | 0.78 (≈ 1.91 µM) | 0.78 (≈ 1.91 µM) | 1.56 (≈ 3.83 µM) | 0.05 (≈ 0.123 µM) | 0.2 (≈ 0.491 µM) | – | Cc1c(N2CCC(c3ccccn3)C2)c(F)cn2c(=O)c(C(=O)O)cc(C3CC3)c12 (configuration not stated) | 2.6 (≈ 6.38 µM)
4 | 1.56 (≈ 4.68 µM) | 12.5 (≈ 37.5 µM) | 1.56 (≈ 4.68 µM) | > 100 | 0.2 (≈ 0.6 µM) | 12.5 (≈ 37.5 µM) | 3.1 (≈ 9.3 µM) | 1.56 (≈ 4.68 µM) | 6.2 (≈ 18.6 µM) | 25 (≈ 75 µM) | 0.78 (≈ 2.34 µM) | > 100 | – | Cc1c(N(C)CCN)c(F)cn2c(=O)c(C(=O)O)cc(C3CC3)c12 | –
5 | 50 (≈ 126 µM) | 25 (≈ 62.8 µM) | 50 (≈ 126 µM) | 50 (≈ 126 µM) | 12.5 (≈ 31.4 µM) | 25 (≈ 62.8 µM) | 25 (≈ 62.8 µM) | 25 (≈ 62.8 µM) | 100 (≈ 251 µM) | > 100 | 25 (≈ 62.8 µM) | 100 (≈ 251 µM) | – | COc1ccc(-c2cc(C(=O)O)c(=O)n3cc(F)c(N4CCC(N)C4)nc23)cc1 (configuration not stated) | –
6 | 0.005 (≈ 0.0125 µM) | 0.01 (≈ 0.025 µM) | 0.005 (≈ 0.0125 µM) | 6.2 (≈ 15.5 µM) | 0.02 (≈ 0.0501 µM) | 0.02 (≈ 0.0501 µM) | 0.02 (≈ 0.0501 µM) | 0.1 (≈ 0.25 µM) | – | 0.78 (≈ 1.95 µM) | 0.02 (≈ 0.0501 µM) | 0.39 (≈ 0.976 µM) | 0.39 | Cc1c(N2C[C@H]3CCC[C@H](N)[C@H]3C2)c(F)cn2c(=O)c(C(=O)O)cc(C3CC3)c12 | 0.3 (≈ 0.751 µM)
7 | 0.2 (≈ 0.478 µM) | 12.5 (≈ 29.9 µM) | 0.2 (≈ 0.478 µM) | > 100 | 0.2 (≈ 0.478 µM) | 3.1 (≈ 7.41 µM) | 6.2 (≈ 14.8 µM) | 0.78 (≈ 1.86 µM) | 6.2 (≈ 14.8 µM) | 25 (≈ 59.8 µM) | 0.39 (≈ 0.932 µM) | > 100 | – | CN1CCN(c2nc3c(-c4ccc(F)cc4F)cc(C(=O)O)c(=O)n3cc2F)CC1 | –
8 | 0.1 (≈ 0.278 µM) | 0.78 (≈ 2.17 µM) | 0.2 (≈ 0.556 µM) | 6.2 (≈ 17.3 µM) | 0.05 (≈ 0.139 µM) | 0.39 (≈ 1.09 µM) | 0.2 (≈ 0.556 µM) | 0.1 (≈ 0.278 µM) | 0.78 (≈ 2.17 µM) | 3.1 (≈ 8.63 µM) | 0.02 (≈ 0.0556 µM) | 25 (≈ 69.6 µM) | – | Cc1c(N2CCCNCC2)c(F)cn2c(=O)c(C(=O)O)cc(C3CC3)c12 | –
9 | 0.05 (≈ 0.133 µM) | 0.39 (≈ 1.04 µM) | 0.05 (≈ 0.133 µM) | 25 (≈ 66.6 µM) | 0.05 (≈ 0.133 µM) | 0.39 (≈ 1.04 µM) | 0.39 (≈ 1.04 µM) | 0.2 (≈ 0.533 µM) | 1.56 (≈ 4.16 µM) | 3.1 (≈ 8.26 µM) | 0.05 (≈ 0.133 µM) | 3.1 (≈ 8.26 µM) | – | CO[C@@H]1CN(c2c(F)cn3c(=O)c(C(=O)O)cc(C4CC4)c3c2C)C[C@H]1N | –
10 | 0.01 (≈ 0.0278 µM) | 0.1 (≈ 0.278 µM) | 0.02 (≈ 0.0556 µM) | 3.1 (≈ 8.63 µM) | 0.01 (≈ 0.0278 µM) | 0.2 (≈ 0.556 µM) | 0.05 (≈ 0.139 µM) | 0.1 (≈ 0.278 µM) | 0.78 (≈ 2.17 µM) | 3.1 (≈ 8.63 µM) | 0.1 (≈ 0.278 µM) | 0.78 (≈ 2.17 µM) | – | Cc1c(N2C[C@@H](N)C[C@H]2C)c(F)cn2c(=O)c(C(=O)O)cc(C3CC3)c12 | –
11 | 0.39 (≈ 0.974 µM) | 25 (≈ 62.4 µM) | 0.39 (≈ 0.974 µM) | – | 0.2 (≈ 0.5 µM) | 6.2 (≈ 15.5 µM) | 25 (≈ 62.4 µM) | 0.78 (≈ 1.95 µM) | 6.2 (≈ 15.5 µM) | 25 (≈ 62.4 µM) | 0.39 (≈ 0.974 µM) | 25 (≈ 62.4 µM) | – | CN1CCN(c2nc3c(-c4ccc(F)cc4)cc(C(=O)O)c(=O)n3cc2F)CC1 | –
12 | 6.2 (≈ 18.6 µM) | > 100 | 6.2 (≈ 18.6 µM) | – | 0.39 (≈ 1.17 µM) | > 100 | > 100 | 3.1 (≈ 9.3 µM) | 25 (≈ 75 µM) | > 100 | 3.1 (≈ 9.3 µM) | > 100 | – | O=C(O)c1cc(C2CC2)c2nc(N3CCOCC3)c(F)cn2c1=O | 1.5 (≈ 4.5 µM)
13 | 0.1 (≈ 0.278 µM) | – | 0.1 (≈ 0.278 µM) | 50 (≈ 139 µM) | 0.1 (≈ 0.278 µM) | 0.39 (≈ 1.09 µM) | 0.39 (≈ 1.09 µM) | 0.39 (≈ 1.09 µM) | 1.56 (≈ 4.34 µM) | 3.1 (≈ 8.63 µM) | 0.2 (≈ 0.556 µM) | 6.2 (≈ 17.3 µM) | – | CCc1c(N2CCC(N)C2)c(F)cn2c(=O)c(C(=O)O)cc(C3CC3)c12 (configuration not stated) | –
